Read-outs that look alike come from different tables or passages of the source. Blank lines part the entries; values can stand above or below the molecule they belong to.
System: HCT116 colon cancer cells
Assay: KSP Cellular Assay (percent of cells staining positive for Phos-Histone H3 / Phos-MPM2)
Type: cell-based
Settings: Homo sapiens, read-out: EC50 (nM) Range
Method in brief: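 HCT116 cells treated with compound for 16 hours, fixed and stained with Hoechst plus Phos-Histone H3 (ser10) and Phos-MPM2 antibodies. Percent positive cells from immunofluorescence imaging; EC50 by sigmoidal nonlinear regression over 8-point dilutions in duplicate.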

[1] = HCT-116, table of Example 2001, HCT116 cells, 16 hours with drug
[2] = HCT-116, 16 h, table of Example 2001, HCT116 cells, 16 hours with drug
[3] = HCT-116, 16 h, table of Example 2101, HCT116 cells, 16 hours with drug
[4] = HCT-116, 16 h, table of Example 2201, HCT116 cells, 16 hours with drug
[5] = HCT-116, 16 h, table of Example 2301, HCT116 cells, 16 hours with drug
[6] = HCT-116, 16 h, table of Example 2501, HCT116 cells, 16 hours with drug
[7] = HCT-116, 16 h, table of Example 2701, HCT116 cells, 16 hours with drug
[8] = HCT-116, 16 h, table of Example 2901, HCT116 cells, 16 hours with drug

SMILES: NCC[C@H]1COc2ccccc2[C@]12SC(c1cc(F)ccc1F)=NN2C(=O)CF [compound 2001]
EC50 [1]: ≤ 500 nM

SMILES: NCC[C@@H]1COc2ccccc2[C@@]12SC(c1cc(F)ccc1F)=NN2C(=O)CF [compound 2002]
EC50 [1]: ≤ 500 nM

SMILES: COCC(=O)N1N=C(c2cc(F)ccc2F)S[C@]12c1ccccc1OC[C@@H]2CCN [compound 2003]
EC50 [2]: ≤ 500 nM

SMILES: COCC(=O)N1N=C(c2cc(F)ccc2F)S[C@@]12c1ccccc1OC[C@H]2CCN [compound 2004]
EC50 [2]: ≤ 500 nM

SMILES: NCC[C@H]1COc2ccccc2[C@]12SC(c1cc(F)ccc1F)=NN2C(=O)C(F)F [compound 2005]
EC50 [2]: ≤ 500 nM

SMILES: CO[C@@H](C)C(=O)N1N=C(c2cc(F)ccc2F)S[C@]12c1ccccc1OC[C@@H]2CCN [compound 2007]
EC50 [2]: ≤ 500 nM

SMILES: CO[C@@H](C)C(=O)N1N=C(c2cc(F)ccc2F)S[C@@]12c1ccccc1OC[C@H]2CCN [compound 2008]
EC50 [2]: ≤ 500 nM

SMILES: CCOC(=O)N1N=C(c2cc(F)ccc2F)S[C@]12c1cc(F)ccc1OC[C@@H]2CCN [compound 2102]
EC50 [3]: > 1000 nM

SMILES: CCOC(=O)N1N=C(c2cc(F)ccc2F)S[C@@]12c1ccccc1OC[C@H]2CCN [compound 2103]
EC50 [3]: > 1000 nM

SMILES: CCOC(=O)N1N=C(c2cc(F)ccc2F)S[C@]12c1ccccc1OC[C@@H]2CCN [compound 2104]
EC50 [3]: ≤ 500 nM

SMILES: CN(C)C(=O)N1N=C(c2cc(F)ccc2F)S[C@]12c1cc(F)ccc1OC[C@@H]2CCN [compound 2202]
EC50 [4]: > 1000 nM

SMILES: CN(C)C(=O)N1N=C(c2cc(F)ccc2F)S[C@]12c1ccccc1OC[C@@H]2CCN [compound 2204]
EC50 [4]: ≤ 500 nM

SMILES: NCC[C@@H]1COc2ccccc2[C@@]12SC(c1cc(F)ccc1F)=NN2C(=O)N1CCOCC1 [compound 2205]
EC50 [4]: > 1000 nM

The next lines start with the values.

EC50 [4]: > 1000 nM
SMILES: NCC[C@H]1COc2ccccc2[C@]12SC(c1cc(F)ccc1F)=NN2C(=O)N1CCOCC1 [compound 2206]

EC50 [5]: ≤ 500 nM
SMILES: CC(=O)N1N=C(c2cc(F)ccc2F)SC12c1ccccc1OCC2CCO (centres unmarked) [compound 2301]

EC50 [5]: > 1000 nM
SMILES: Fc1ccc(F)c(C2=NN3CCC4COc5ccccc5C43S2)c1 (centres unmarked) [compound 2302]

EC50 (HCT-116, 16 h, table of Example 2401, HCT116 cells, 16 hours with drug): > 1000 nM
SMILES: CC(=O)N1N=C(c2cc(F)ccc2F)S[C@]12CCNc1ccccc12 [compound 2402]

EC50 [6]: ≤ 500 nM
SMILES: CC(=O)N1N=C(c2cc(F)ccc2F)S[C@]12c1ccccc1NC[C@@H]2CCO [compound 2501]

EC50 [6]: ≤ 500 nM
SMILES: CC(=O)N1N=C(c2cc(F)ccc2F)S[C@@]12c1ccccc1NC[C@H]2CCO [compound 2502]

EC50 [7]: ≤ 500 nM
SMILES: CC(=O)N1N=C(c2cc(F)ccc2F)S[C@]12c1ccccc1NC[C@H]2CCN [compound 2701]

EC50 [7]: 500 to 1000 nM
SMILES: CC(=O)NCC[C@H]1CNc2ccccc2[C@]12SC(c1cc(F)ccc1F)=NN2C(C)=O [compound 2702]

EC50 (HCT-116, 16 h, table of Example 2801, HCT116 cells, 16 hours with drug): ≤ 500 nM
SMILES: CC(=O)N1N=C(c2cc(F)ccc2F)S[C@]12c1ccccc1NC[C@H]2CCN [compound 2801]

EC50 [8]: ≤ 500 nM
SMILES: CC(=O)N1N=C(c2cc(F)ccc2F)S[C@@]12c1cc(F)ccc1NC[C@H]2CCN [compound 2902]

EC50 [8]: ≤ 500 nM
SMILES: CC(=O)N1N=C(c2cc(F)ccc2F)S[C@]12c1cc(F)ccc1NC[C@H]2CCN [compound 2903]

EC50 [8]: > 1000 nM
SMILES: CC(=O)N1N=C(c2cc(F)ccc2F)S[C@]12c1cc(F)ccc1NC[C@@H]2CCN [compound 2904]

EC50 (HCT-116): > 1000 nM
SMILES: Fc1ccc(F)c(C2=NN3CCC4CNc5ccccc5C43S2)c1 (centres unmarked) [compound 3101]
